Results reported in PubChem BioAssay AID248 (DTP/NCI, 2004).
Toxic doses and inconclusive results are not listed. No stated cut-off is given here; in the data, active means T/C of 150% or more; inactive means T/C below 125%. Square brackets hold non-standard residues; d marks the D form. Peptide text beside a SMILES is read from it. * marks the point of attachment. ξ: configuration not given here. Cbz = O=C(OCc1ccccc1)*; ξT = CC(O)C(N)C(=O)O

Tested on: L1210 leukemia ip in BDF1 mice, survival T/C
Assay: NCI In Vivo Anticancer Drug Screen. Data for tumor model L1210 Leukemia (intraperitoneal) in B6D2F1 (BDF1) mice
Details: endpoint: mean survival time, higher = longer survival
In short: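 Antitumor effect is assessed in tumor-bearing animals. Survival in the compound arm is compared with a vehicle-dosed control arm and expressed as their quotient.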

[1] = dose: 100.0 mg/kg/injection, schedule: Q04DX003 (ip), vehicle: saline with Tween-80
[2] = dose: 200.0 mg/kg/injection, schedule: Q04DX003 (ip), vehicle: saline with Tween-80
[3] = dose: 400.0 mg/kg/injection, schedule: Q04DX003 (ip), vehicle: saline with Tween-80
[4] = dose: 100.0 mg/kg/injection, schedule: Q01DX009 (ip), vehicle: Klucel (hydroxypropylcellulose) (HPC)
[5] = dose: 100.0 mg/kg/injection, schedule: Q04DX003 (ip), vehicle: Klucel (hydroxypropylcellulose) (HPC)
[6] = dose: 200.0 mg/kg/injection, schedule: Q04DX003 (ip), vehicle: Klucel (hydroxypropylcellulose) (HPC)
[7] = dose: 100.0 mg/kg/injection, schedule: Q01DX001 (ip), vehicle: saline

Measured: T/C

O=C1OC(c2ccc([N+](=O)[O-])cc2)=N/C1=C\c1ccc(Cl)cc1
inactive: dose: 100.0 mg/kg/injection, schedule: Q01DX009 (ip), vehicle: saline 94 % of control | dose: 100.0 mg/kg/injection, schedule: Q04DX002 (ip), vehicle: saline 89 % of control | dose: 200.0 mg/kg/injection, schedule: Q01DX009 (ip), vehicle: saline 91 % of control | dose: 200.0 mg/kg/injection, schedule: Q04DX002 (ip), vehicle: saline 92 % of control | dose: 400.0 mg/kg/injection, schedule: Q01DX009 (ip), vehicle: saline 91 % of control | dose: 400.0 mg/kg/injection, schedule: Q04DX002 (ip), vehicle: saline 92 % of control

COC(=O)C(NC(=O)CNC(=O)OCc1ccccc1)C(C)O (stereo not drawn) (Cbz-Gly-[ξT]-OMe)
inactive: [1] 98 % of control | [2] 96 % of control | [3] 93 % of control

CC(=O)OC1CCC2(C)C3CCC4(C)C(O)CCC4C3CC(O)C2(O)C1 (stereo not given)
inactive: dose: 100.0 mg/kg/injection, schedule: Q01DX009 (ip), vehicle: saline with Tween-80 110 % of control | dose: 200.0 mg/kg/injection, schedule: Q01DX009 (ip), vehicle: saline with Tween-80 97 % of control | dose: 400.0 mg/kg/injection, schedule: Q01DX009 (ip), vehicle: saline with Tween-80 94 % of control

CC(C)C(C)C(N)C(=O)O (stereo not given)
inactive: dose: 100.0 mg/kg/injection, schedule: Q01DX001 (ip), vehicle: other 101 % of control | dose: 200.0 mg/kg/injection, schedule: Q01DX001 (ip), vehicle: other 95 % of control | dose: 400.0 mg/kg/injection, schedule: Q01DX001 (ip), vehicle: other 106 % of control

O=[N+]([O-])c1ccc(/C=C/CCOc2ccccc2)cc1
inactive: [4] 98 % of control | [5] 97 % of control | dose: 200.0 mg/kg/injection, schedule: Q01DX009 (ip), vehicle: Klucel (hydroxypropylcellulose) (HPC) 96 % of control | [6] 105 % of control | dose: 400.0 mg/kg/injection, schedule: Q01DX009 (ip), vehicle: Klucel (hydroxypropylcellulose) (HPC) 91 % of control | dose: 400.0 mg/kg/injection, schedule: Q04DX003 (ip), vehicle: Klucel (hydroxypropylcellulose) (HPC) 105 % of control

CCOC(CNC(=O)c1ccc(S(=O)(=O)F)cc1)OCC
inactive: dose: 100.0 mg/kg/injection, schedule: Q04DX003 (ip), vehicle: alcohol 107 % of control | dose: 200.0 mg/kg/injection, schedule: Q04DX003 (ip), vehicle: alcohol 101 % of control | dose: 400.0 mg/kg/injection, schedule: Q04DX003 (ip), vehicle: alcohol 98 % of control

CC(=O)NN(c1ccc([N+](=O)[O-])cc1)c1ccc([N+](=O)[O-])cc1
inactive: dose: 50.0 mg/kg/injection, schedule: Q01DX009 (ip), vehicle: Klucel (hydroxypropylcellulose) (HPC) 97 % of control | [4] 90 % of control | [5] 93 % of control | [6] 95 % of control

Cc1nc2ccccc2c(=O)n1N
inactive: [7] 111 % of control | dose: 200.0 mg/kg/injection, schedule: Q01DX001 (ip), vehicle: saline 105 % of control

CCN(CC)CCC(CC=C(C)C)(C(N)=O)c1cccc2ccccc12 (stereo not given)
inactive: dose: 5.0 mg/kg/injection, schedule: Q04DX003 (ip), vehicle: saline with Tween-80 98 % of control | dose: 10.0 mg/kg/injection, schedule: Q04DX003 (ip), vehicle: saline with Tween-80 100 % of control | dose: 20.0 mg/kg/injection, schedule: Q04DX003 (ip), vehicle: saline with Tween-80 109 % of control

CCSC(SCC)C1OC(C)(C)OC1C1COC(C)(C)O1 (stereo not given)
inactive: dose: 100.0 mg/kg/injection, schedule: Q01DX001 (ip), vehicle: carboxymethylcellulose (CMC) 103 % of control | [1] 96 % of control | dose: 200.0 mg/kg/injection, schedule: Q01DX001 (ip), vehicle: carboxymethylcellulose (CMC) 103 % of control | [2] 94 % of control | dose: 400.0 mg/kg/injection, schedule: Q01DX001 (ip), vehicle: carboxymethylcellulose (CMC) 103 % of control | [3] 91 % of control

CN(C)CCNc1cc([N+](=O)[O-])ccc1[N+](=O)[O-]
inactive: [7] 105 % of control
